Assays:
[1] = tested on: purple nutsedge; assay: Test D purple nutsedge; type: in vivo, Cyperus rotundus; settings: Preemergence, 0 to 100 scale
Procedure, shortened: (§1)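 Scoring used a 0–100 visual injury scale, with 0 meaning no effect and 100 complete control, assessed 14–21 days after application alongside untreated pots. Preemergence treatments went onto sandy loam surfaces of separately potted seeds within a day of sowing.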

[2] = tested on: Italian ryegrass; assay: Test E Italian ryegrass; type: in vivo, Lolium multiflorum; settings: Preemergence
[3] = tested on: tall mallow; assay: Test D tall mallow; type: in vivo, Malva sylvestris; settings: Preemergence, 0 to 100 scale
Procedure, shortened: as §1

[4] = tested on: goosegrass; assay: Test D goosegrass; type: in vivo, Eleusine indica; settings: Preemergence, 0 to 100 scale
Procedure, shortened: as §1

[5] = tested on: giant foxtail; assay: Test B pre/postemergence giant foxtail; type: in vivo, Setaria faberii
Procedure, shortened: (§2)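 Herbicidal effect was estimated by eye on a ten-point control scale after plants spent twelve to sixteen days in a greenhouse following soil or foliar treatment. Foliar sprays targeted plants at one to four leaves; all doses were formulated in a non-phytotoxic solvent with surfactant.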

[6] = tested on: wild oat; assay: Test E wild oat; type: in vivo, Avena fatua; settings: Preemergence
[7] = tested on: winter wheat; assay: Test E winter wheat; type: in vivo, Triticum aestivum; settings: Postemergence
Procedure, shortened: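 Compound formulated with surfactant in a non-phytotoxic solvent (postemergence: young 1- to 4-leaf plants); held in greenhouse approx. 21–28 days; visual assessment against untreated plants.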

[8] = tested on: blackgrass; assay: Test E blackgrass; type: in vivo, Alopecurus myosuroides; settings: Preemergence
[9] = tested on: winter wheat; assay: Test E winter wheat; type: in vivo, Triticum aestivum; settings: Preemergence
[10] = tested on: Alexandergrass; assay: Test D Alexandergrass; type: in vivo, Brachiaria plantaginea; settings: Preemergence, 0 to 100 scale
Procedure, shortened: as §1

[11] = tested on: green foxtail; assay: Test E green foxtail; type: in vivo, Setaria viridis; settings: Preemergence
[12] = tested on: bamyardgrass; assay: Test B flood test barnyardgrass; type: in vivo, Echinochloa crus-galli
Procedure, shortened: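 Read-out is a visual response score from 0 (no effect) to 10 (complete control), assigned by comparison with untreated controls. Treatment was applied at the 2-leaf stage, and plants stayed in the greenhouse for twelve to sixteen days before scoring.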

[13] = tested on: cocklebur; assay: Test B pre/postemergence cocklebur; type: in vivo, Xanthium strumarium
Procedure, shortened: as §2

[14] = tested on: morningglory; assay: Test B pre/postemergence morningglory; type: in vivo, Ipomoea hederacea
Procedure, shortened: as §2

[15] = tested on: winter barley; assay: Test E winter barley; type: in vivo, Hordeum vulgare; settings: Preemergence
[16] = Rate 16 g/ha, 0 no injury, 100 complete control
[17] = Rate 32 g/ha, 0 no injury, 100 complete control
[18] = Rate 64 g/ha, 0 no injury, 100 complete control
[19] = Rate 125 g/ha, 0 no injury, 100 complete control
[20] = Rate 31 g/ha, 0 to 100 scale, 0 no effect, 100 complete control
[21] = Rate 62 g/ha, 0 to 100 scale, 0 no effect, 100 complete control
[22] = Rate 125 g/ha, 0 to 100 scale (0 no effect, 100 complete control)
[23] = Postemergence, Rate 62 g/ha, scale 0 to 10, 0 is no effect, 10 is complete control
[24] = Postemergence, Rate 125 g/ha, scale of 0 to 10 where 0 is no effect and 10 is complete control
[25] = Postemergence, Rate 250 g/ha, scale 0 to 10, 0 no effect, 10 complete control
[26] = Preemergence, Rate 62 g/ha, scale 0 to 10 (0 no effect, 10 complete control)
[27] = Preemergence, Rate 125 g/ha, scale 0 to 10 (0 no effect, 10 complete control)
[28] = Preemergence, Rate 250 g/ha, scale of 0 to 10 where 0 is no effect and 10 is complete control
[29] = Preemergence, Rate 500 g/ha, scale 0 (no effect) to 10 (complete control)
[30] = Rate 500 g/ha, Postemergence, scale 0 to 10, 0 no effect, 10 complete control

C=CCn1c(=O)on(C(=O)N(c2ccccc2)C(C)C)c1=O [Compound 93]
Plant response rating, Purple nutsedge [1, 16]: 0
Plant response rating, Purple nutsedge [1, 17]: 0
Purple nutsedge plant response rating [1, 18]: 20
Purple nutsedge plant response rating [1, 19]: 0
Plant response rating, Purple nutsedge ([1]; Rate 250 g/ha): 30
Plant response rating, Purple nutsedge ([1]; Rate 500 g/ha): 100
Plant response rating, I. Ryegrass [2, 20]: 30
Plant response rating, I. Ryegrass [2, 21]: 50
Plant response rating, I. Ryegrass [2, 22]: 70
Plant response rating, I. Ryegrass ([2]; Rate 250 g/ha, 0 to 100 scale): 100
Plant response rating, Tall Mallow [3, 16]: 0
Plant response rating, Tall Mallow [3, 17]: 0
Tall Mallow plant response rating [3, 18]: 0
Tall Mallow plant response rating [3, 19]: 30
Plant response rating, Tall Mallow ([3]; Rate 250 g/ha): 90
Plant response rating, Tall Mallow ([3]; Rate 500 g/ha): 98
Plant response rating, Goosegrass [4, 16]: 65
Plant response rating, Goosegrass [4, 17]: 98
Plant response rating, Goosegrass [4, 18]: 98
Plant response rating, Goosegrass [4, 19]: 100
Plant response rating, Goosegrass ([4]; Rate 250 g/ha): 100
Plant response rating, Goosegrass ([4]; Rate 500 g/ha): 100
Giant foxtail plant response rating [5, 23]: 6
Giant foxtail plant response rating [5, 24]: 7
Giant foxtail plant response rating [5, 25]: 9
Giant foxtail plant response rating [5, 26]: 10
Plant response rating, Giant foxtail [5, 27]: 10
Plant response rating, Giant foxtail [5, 28]: 10
Giant foxtail plant response rating [5, 29]: 10
Giant foxtail plant response rating [5, 30]: 9
Plant response rating, Wild oat [6, 20]: 40
Plant response rating, Wild oat [6, 21]: 50
Plant response rating, Wild oat [6, 22]: 60
Plant response rating, Wheat (winter) [7, 20]: 0
Plant response rating, Wheat (winter) ([7]; Rate 62 g/ha, 0 to 100 scale): 20
Plant response rating, Wheat (winter) ([7]; Rate 125 g/ha, 0 to 100 scale): 65
Plant response rating, Wheat (winter) ([7]; Rate 250 g/ha, 0 to 100 scale (0 no effect, 100 complete control)): 0
Plant response rating, Blackgrass [8, 20]: 0
Plant response rating, Blackgrass [8, 21]: 50
Plant response rating, Blackgrass [8, 22]: 70
Plant response rating, Blackgrass ([8]; Rate 250 g/ha, 0 to 100 scale): 75
Plant response rating, Wheat (winter) [9, 20]: 20
Plant response rating, Wheat (winter) [9, 21]: 40
Plant response rating, Wheat (winter) [9, 22]: 40
Plant response rating, Wheat (winter) ([9]; Rate 250 g/ha, 0 to 100 scale): 100
Plant response rating, Alexandergrass [10, 16]: 0
Plant response rating, Alexandergrass [10, 17]: 10
Plant response rating, Alexandergrass [10, 18]: 30
Plant response rating, Alexandergrass [10, 19]: 85
Plant response rating, Alexandergrass ([10]; Rate 250 g/ha): 100
Plant response rating, Alexandergrass ([10]; Rate 500 g/ha): 100
Plant response rating, Green foxtail [11, 20]: 30
Plant response rating, Green foxtail [11, 21]: 70
Plant response rating, Green foxtail [11, 22]: 80
Barnyardgrass plant response rating [12, 23]: 0
Barnyardgrass plant response rating ([12]; Rate 125 g/ha, Postemergence section (flood test species), scale 0 to 10, 0 no effect, 10 complete control): 0
Barnyardgrass plant response rating ([12]; Rate 250 g/ha, headed Pre-emergence (flood test species), scale 0 to 10 (0 no effect, 10 complete control)): 0
Plant response rating, Barnyardgrass ([12]; Rate 500 g/ha, headed Pre-emergence (flood test species), scale 0 to 10 (0 no effect, 10 complete control)): 0
Barnyardgrass plant response rating ([12]; Rate 500 g/ha, listed under Postemergence (flood test species), scale 0 to 10, 0 no effect, 10 complete control): 0
Barnyardgrass plant response rating ([12]; Rate 1000 g/ha, Pre-emergence (as headed), scale 0 to 10): 0
Barnyardgrass plant response rating ([12]; Rate 2000 g/ha, Pre-emergence (as headed), scale 0 to 10, 0 no effect, 10 complete control): 0
Barnyardgrass plant response rating ([12]; flood test, listed under Postemergence, Rate 250 g/ha, scale 0 to 10, 0 no effect, 10 complete control): 0
Cocklebur plant response rating [13, 23]: 0
Cocklebur plant response rating [13, 24]: 1
Cocklebur plant response rating [13, 25]: 2
Cocklebur plant response rating [13, 26]: 2
Plant response rating, Cocklebur [13, 27]: 2
Cocklebur plant response rating [13, 30]: 4
Morningglory plant response rating [14, 23]: 6
Morningglory plant response rating [14, 24]: 10
Morningglory plant response rating [14, 25]: 10
Morningglory plant response rating [14, 26]: 0
Plant response rating, Morningglory [14, 27]: 0
Plant response rating, Morningglory [14, 28]: 3
Morningglory plant response rating [14, 29]: 6
Morningglory plant response rating [14, 30]: 10
Plant response rating, Barley (winter) [15, 20]: 20
Plant response rating, Barley (winter) [15, 21]: 50
Plant response rating, Barley (winter) [15, 22]: 50
Plant response rating, Barley (winter) ([15]; Rate 250 g/ha, 0 to 100 scale): 50

Reference: US6737383B1, “Herbicidal oxadiazolidines” (priority 1999, dated 2004)
